From PubChem BioAssay (NCI)
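Test compounds were applied to cells in 96-well plates for 48 hours at 5 doses. At the GI50, growth is halved. At the TGI there is no net growth.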

Legend:
Assay in all cases: NCI-60 cell line screen, 48 h
[1] = test system: A498 renal
[2] = test system: CCRF-CEM leukemia
[3] = test system: K-562 leukemia
[4] = test system: M14 melanoma
[5] = test system: MCF7 breast
[6] = test system: NCI-H460 lung
[7] = test system: SN12C renal
[8] = test system: SNB-19 CNS
[9] = test system: SR leukemia
[10] = test system: T-47D breast
[11] = test system: UO-31 renal
[12] = test system: SF-268 CNS
[13] = test system: OVCAR-4 ovarian

Compound	TGI [1] [µM]	TGI [2] [µM]	TGI [3] [µM]	TGI [4] [µM]	TGI [5] [µM]	TGI [6] [µM]	TGI [7] [µM]	TGI [8] [µM]	TGI [9] [µM]	TGI [10] [µM]	TGI [11] [µM]	TGI [12] [µM]	TGI [13] [µM]	GI50 [2] [µM]	GI50 [3] [µM]	GI50 [13] [µM]	GI50 [8] [µM]	GI50 [9] [µM]	GI50 [10] [µM]	GI50 [11] [µM]
CCCCOc1ccc2c(c1)CC[C@@H]1[C@@H]2CC[C@]2(C)C(=O)N(CCCC)C(=O)C[C@@H]12	> 100	> 100	> 100	> 100	> 100	> 100	> 100	> 100	> 100	> 100	> 100									
CCOC(=O)C1=C(c2ccccc2)C12N(Cc1ccccc1)C(=O)C2(c1ccccc1)c1ccccc1 (configuration not stated)	90.9	> 100	> 100	> 100	> 100	> 100	> 100	> 100	> 100	> 100	> 100	> 100								
N#Cc1ccc(C2Oc3ccc(Cl)cc3C=C2[N+](=O)[O-])cc1 (configuration not stated)	6.31	1.03	2.04	2.73	3.14	5.18		6.58	1.61		2.99	4.16	3.45							
Cc1ccc(C#CS(=O)(=O)C(F)(F)F)cc1	> 100	> 100	> 100		> 100	> 100	> 100	> 100			> 100	> 100	> 100							
COc1cc(-c2nc3cc(Cl)c(Cl)cc3[nH]2)ccc1OCC(=O)N=Nc1c(O)[nH]c2ccc(Cl)cc12		5.27						3.33	1.39	2.37	> 100		> 100	0.28	0.284	0.403	0.447	0.252	0.381	> 100
